The text below walks through data of ChEMBL document CHEMBL4619718, “Discovery of cyclic guanidine-linked sulfonamides as inhibitors of LMTK3 kinase” (Bioorg Med Chem Lett, 2020).

In assay [1] the test system is MCF7. Description: Antiproliferative activity against human MCF7 cells at 20 uM incubated for 6 days by MTT assay relative to control. The format is functional.
In assay [2] the target is T1, Muscle, skeletal receptor tyrosine-protein kinase (Homo sapiens) (UniProt O15146).
T1 sequence (whole entry): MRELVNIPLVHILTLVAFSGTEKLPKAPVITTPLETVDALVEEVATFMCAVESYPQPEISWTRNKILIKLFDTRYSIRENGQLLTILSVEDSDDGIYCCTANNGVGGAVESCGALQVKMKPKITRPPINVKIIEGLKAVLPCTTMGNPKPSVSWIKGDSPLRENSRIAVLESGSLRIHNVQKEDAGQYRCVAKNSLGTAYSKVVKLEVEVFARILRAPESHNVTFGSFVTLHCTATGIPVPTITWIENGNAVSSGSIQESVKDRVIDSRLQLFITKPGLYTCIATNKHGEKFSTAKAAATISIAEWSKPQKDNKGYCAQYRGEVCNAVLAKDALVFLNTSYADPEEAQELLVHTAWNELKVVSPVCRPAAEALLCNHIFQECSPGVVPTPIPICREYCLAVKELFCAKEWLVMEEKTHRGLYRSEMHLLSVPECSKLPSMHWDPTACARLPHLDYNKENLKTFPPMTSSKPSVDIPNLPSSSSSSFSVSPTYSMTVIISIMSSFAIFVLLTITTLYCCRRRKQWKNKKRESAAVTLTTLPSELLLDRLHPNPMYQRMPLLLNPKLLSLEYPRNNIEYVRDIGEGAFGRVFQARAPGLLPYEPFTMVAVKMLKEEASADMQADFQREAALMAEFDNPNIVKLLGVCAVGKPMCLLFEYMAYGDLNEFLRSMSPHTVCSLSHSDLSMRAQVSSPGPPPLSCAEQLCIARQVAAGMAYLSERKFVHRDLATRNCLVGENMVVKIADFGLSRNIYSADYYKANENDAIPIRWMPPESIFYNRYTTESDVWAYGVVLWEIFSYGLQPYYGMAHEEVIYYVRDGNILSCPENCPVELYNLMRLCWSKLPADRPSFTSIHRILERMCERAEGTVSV
Description: Inhibition of MUSK (unknown origin) at 10 uM relative to control.

The target in assay [3] is BDNF/NT-3 growth factors receptor (Homo sapiens) (UniProt Q16620). Description: Inhibition of TRKB (unknown origin) at 10 uM relative to control.
Chain of BDNF/NT-3 growth factors receptor (Homo sapiens) (Q16620 32-822 limits assumed): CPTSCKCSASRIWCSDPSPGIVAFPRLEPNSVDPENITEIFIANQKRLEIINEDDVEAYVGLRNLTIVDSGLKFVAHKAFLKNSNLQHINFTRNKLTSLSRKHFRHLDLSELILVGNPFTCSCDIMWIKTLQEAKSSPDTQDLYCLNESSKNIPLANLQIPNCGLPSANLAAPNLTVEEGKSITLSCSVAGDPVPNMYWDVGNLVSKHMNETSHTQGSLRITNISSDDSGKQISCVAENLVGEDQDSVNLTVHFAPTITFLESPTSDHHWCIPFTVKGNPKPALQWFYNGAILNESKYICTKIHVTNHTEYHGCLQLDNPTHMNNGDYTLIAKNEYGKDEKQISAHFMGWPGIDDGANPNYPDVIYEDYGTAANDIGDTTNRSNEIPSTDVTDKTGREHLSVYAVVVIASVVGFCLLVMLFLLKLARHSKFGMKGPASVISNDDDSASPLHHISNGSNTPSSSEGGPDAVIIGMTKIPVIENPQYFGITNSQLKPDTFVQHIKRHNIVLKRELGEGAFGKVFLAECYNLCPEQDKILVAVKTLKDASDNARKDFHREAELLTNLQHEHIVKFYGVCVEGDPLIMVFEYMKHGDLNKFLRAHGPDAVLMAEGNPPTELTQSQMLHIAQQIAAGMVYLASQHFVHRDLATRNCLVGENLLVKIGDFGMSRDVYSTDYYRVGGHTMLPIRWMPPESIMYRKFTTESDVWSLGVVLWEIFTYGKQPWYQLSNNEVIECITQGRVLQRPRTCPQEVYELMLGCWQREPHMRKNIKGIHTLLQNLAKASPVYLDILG
In assay [4] the target is T2, Serine/threonine-protein kinase LMTK3 (Homo sapiens, UniProt Q96Q04).
T2 sequence (Q96Q04 whole entry): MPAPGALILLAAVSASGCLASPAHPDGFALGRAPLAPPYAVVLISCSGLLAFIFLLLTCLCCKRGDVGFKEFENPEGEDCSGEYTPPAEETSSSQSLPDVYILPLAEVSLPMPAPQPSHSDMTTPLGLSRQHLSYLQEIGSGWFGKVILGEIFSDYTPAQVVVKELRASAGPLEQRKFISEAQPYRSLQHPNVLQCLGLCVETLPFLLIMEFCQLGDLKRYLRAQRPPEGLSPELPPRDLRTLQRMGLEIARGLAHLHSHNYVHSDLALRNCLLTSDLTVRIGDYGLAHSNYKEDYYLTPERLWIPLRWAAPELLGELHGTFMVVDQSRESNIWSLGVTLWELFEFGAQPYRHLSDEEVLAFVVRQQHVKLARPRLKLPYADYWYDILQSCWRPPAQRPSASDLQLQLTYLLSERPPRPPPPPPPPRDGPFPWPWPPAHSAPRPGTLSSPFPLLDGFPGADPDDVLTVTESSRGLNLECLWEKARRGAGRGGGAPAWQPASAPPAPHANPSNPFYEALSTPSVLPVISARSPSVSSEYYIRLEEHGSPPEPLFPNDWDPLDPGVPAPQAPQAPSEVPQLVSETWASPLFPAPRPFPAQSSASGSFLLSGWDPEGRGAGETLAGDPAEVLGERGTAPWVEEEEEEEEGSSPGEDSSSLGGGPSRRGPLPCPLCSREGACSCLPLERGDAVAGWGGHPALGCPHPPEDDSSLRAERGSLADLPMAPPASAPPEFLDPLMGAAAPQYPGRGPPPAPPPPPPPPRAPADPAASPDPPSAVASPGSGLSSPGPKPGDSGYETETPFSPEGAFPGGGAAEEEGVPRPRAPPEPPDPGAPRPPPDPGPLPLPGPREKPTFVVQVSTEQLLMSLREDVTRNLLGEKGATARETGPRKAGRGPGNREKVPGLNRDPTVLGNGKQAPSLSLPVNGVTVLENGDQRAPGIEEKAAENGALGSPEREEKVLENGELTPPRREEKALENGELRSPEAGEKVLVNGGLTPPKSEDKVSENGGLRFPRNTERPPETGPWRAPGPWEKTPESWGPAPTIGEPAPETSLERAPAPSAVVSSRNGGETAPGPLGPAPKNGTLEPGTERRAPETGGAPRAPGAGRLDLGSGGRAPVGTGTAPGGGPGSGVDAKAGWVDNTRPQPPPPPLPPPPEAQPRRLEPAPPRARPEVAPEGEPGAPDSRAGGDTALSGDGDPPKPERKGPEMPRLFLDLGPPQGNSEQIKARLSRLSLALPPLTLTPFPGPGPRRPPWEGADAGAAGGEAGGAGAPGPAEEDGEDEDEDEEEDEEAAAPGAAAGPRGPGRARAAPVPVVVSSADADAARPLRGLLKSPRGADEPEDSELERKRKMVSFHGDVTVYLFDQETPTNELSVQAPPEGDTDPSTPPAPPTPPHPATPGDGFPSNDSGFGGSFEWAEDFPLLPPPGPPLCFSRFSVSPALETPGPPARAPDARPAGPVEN
Description: Inhibition of LMTK3 (unknown origin).

The target of assay [5] is Insulin receptor (Homo sapiens) (UniProt P06213). Description: Inhibition of INSR (unknown origin) at 10 uM relative to control.
Chain of Insulin receptor (Homo sapiens) (P06213 28-758 limits assumed): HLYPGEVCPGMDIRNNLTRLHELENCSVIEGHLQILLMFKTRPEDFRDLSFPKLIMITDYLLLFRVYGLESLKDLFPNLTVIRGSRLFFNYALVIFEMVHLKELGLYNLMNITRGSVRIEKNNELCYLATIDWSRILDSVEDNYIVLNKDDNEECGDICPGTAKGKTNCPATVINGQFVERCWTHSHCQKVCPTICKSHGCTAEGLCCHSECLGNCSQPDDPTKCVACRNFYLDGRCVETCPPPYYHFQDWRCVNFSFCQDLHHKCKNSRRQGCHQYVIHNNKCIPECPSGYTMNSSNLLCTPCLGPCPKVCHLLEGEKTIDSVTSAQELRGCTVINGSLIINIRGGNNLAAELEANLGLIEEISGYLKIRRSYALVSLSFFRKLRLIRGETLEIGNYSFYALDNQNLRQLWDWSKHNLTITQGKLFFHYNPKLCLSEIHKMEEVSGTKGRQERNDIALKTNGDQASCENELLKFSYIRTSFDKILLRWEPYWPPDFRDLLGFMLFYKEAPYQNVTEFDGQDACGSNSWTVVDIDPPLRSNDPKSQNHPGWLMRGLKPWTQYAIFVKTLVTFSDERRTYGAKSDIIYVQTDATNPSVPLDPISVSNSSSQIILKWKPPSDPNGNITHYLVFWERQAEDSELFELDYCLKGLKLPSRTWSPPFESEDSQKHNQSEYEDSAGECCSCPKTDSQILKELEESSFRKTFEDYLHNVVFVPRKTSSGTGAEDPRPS
Chain of Insulin receptor (Homo sapiens) (P06213 763-1382 limits assumed): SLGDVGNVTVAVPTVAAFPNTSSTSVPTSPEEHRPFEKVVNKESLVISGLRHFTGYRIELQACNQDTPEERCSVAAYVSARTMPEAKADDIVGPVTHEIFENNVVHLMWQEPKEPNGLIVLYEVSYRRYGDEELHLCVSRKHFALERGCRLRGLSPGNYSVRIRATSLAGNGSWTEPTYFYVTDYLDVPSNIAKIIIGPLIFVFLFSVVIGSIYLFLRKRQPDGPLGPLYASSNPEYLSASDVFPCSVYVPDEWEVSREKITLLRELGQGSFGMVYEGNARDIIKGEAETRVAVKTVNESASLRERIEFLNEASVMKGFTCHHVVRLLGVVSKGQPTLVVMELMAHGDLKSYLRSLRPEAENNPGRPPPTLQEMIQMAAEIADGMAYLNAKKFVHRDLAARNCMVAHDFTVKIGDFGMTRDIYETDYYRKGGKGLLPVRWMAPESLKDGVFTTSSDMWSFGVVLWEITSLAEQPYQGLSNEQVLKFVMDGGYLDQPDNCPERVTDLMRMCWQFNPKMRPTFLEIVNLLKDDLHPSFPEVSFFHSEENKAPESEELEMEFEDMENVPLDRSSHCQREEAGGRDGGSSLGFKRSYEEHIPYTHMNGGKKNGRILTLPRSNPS
For assay [6], the system named is T47D. Kind of assay: Antiproliferative activity against human T47D cells at 20 uM incubated for 6 days by MTT assay relative to control. The format is functional.
The target of assay [7] is Insulin-like growth factor 1 receptor (Homo sapiens) (UniProt P08069). Description: Inhibition of IGF1R (unknown origin) at 10 uM relative to control.
Chain of Insulin-like growth factor 1 receptor (Homo sapiens) (P08069 31-736 limits assumed): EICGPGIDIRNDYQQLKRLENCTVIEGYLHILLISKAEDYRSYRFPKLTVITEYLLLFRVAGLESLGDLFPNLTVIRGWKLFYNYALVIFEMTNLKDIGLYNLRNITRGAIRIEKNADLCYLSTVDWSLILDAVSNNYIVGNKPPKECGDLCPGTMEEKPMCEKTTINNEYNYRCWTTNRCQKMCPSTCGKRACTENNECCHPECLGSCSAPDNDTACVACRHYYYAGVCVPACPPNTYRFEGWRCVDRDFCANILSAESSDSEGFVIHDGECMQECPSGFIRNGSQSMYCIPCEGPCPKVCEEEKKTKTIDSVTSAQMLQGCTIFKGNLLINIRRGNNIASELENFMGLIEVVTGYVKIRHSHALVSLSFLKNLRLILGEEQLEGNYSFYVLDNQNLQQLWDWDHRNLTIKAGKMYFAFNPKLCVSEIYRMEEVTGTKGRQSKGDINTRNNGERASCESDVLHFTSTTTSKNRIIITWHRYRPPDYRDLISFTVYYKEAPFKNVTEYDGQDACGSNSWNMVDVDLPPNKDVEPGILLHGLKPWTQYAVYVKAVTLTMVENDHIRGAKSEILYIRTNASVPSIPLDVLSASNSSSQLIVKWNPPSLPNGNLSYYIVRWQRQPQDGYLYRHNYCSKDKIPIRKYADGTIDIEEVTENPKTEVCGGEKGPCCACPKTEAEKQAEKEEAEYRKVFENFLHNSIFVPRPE
Chain of Insulin-like growth factor 1 receptor (Homo sapiens) (P08069 741-1367 limits assumed): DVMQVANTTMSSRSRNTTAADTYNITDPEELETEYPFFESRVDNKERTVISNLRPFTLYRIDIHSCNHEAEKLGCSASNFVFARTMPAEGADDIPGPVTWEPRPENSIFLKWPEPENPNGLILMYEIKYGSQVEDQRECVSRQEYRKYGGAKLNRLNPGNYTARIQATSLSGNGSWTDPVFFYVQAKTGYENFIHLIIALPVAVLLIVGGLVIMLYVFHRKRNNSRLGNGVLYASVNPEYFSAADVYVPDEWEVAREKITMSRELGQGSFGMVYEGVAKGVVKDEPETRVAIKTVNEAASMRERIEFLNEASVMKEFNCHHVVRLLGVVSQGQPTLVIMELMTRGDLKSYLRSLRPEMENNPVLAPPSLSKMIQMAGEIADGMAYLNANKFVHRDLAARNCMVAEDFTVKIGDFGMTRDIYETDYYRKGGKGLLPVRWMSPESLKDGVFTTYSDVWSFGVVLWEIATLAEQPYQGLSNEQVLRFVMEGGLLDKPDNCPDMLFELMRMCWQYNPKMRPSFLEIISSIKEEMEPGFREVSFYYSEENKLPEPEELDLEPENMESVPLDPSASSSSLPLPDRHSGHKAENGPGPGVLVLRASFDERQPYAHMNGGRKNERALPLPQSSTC
For assay [8], the target named is BDNF/NT-3 growth factors receptor (Homo sapiens) (UniProt Q16620). The note with it: 1.52 nM.
Description: Inhibition of TRKB (unknown origin) at 1.52 nM relative to control
Assay [9] addresses T1, Muscle, skeletal receptor tyrosine-protein kinase (Homo sapiens). Kind of assay: Inhibition of MUSK (unknown origin) at 100 nM relative to control.
The target in assay [10] is T3, Serine/threonine-protein kinase LMTK3 (Homo sapiens) (UniProt Q96Q04).
T3 sequence (whole entry): T2 sequence (Q96Q04 whole entry)
Description: Binding affinity to hyper glycosylated LMTK3 (unknown origin) assessed as change in melting temperature at 10 uM by CETSA-based Western blot analysis.

The test system of assay [11] is MCF7. Kind of assay: Antiproliferative activity against human MCF7 cells at 5 uM incubated for 6 days by MTT assay relative to control. The format is functional.
For assay [12], the target named is T3, Serine/threonine-protein kinase LMTK3 (Homo sapiens). Kind of assay: Binding affinity to full length LMTK3 (unknown origin) assessed as thermal stabilization of protein at 0.3 to 1 uM at 54 degC incubated for 3 mins followed by 3 min incubated at room temperature by CETSA-based Western blot analysis.
The target is the same in assay [13]. Description: Binding affinity to full length LMTK3 (unknown origin) assessed as thermal stabilization of protein at 54 degC incubated for 3 mins followed by 3 min incubated at room temperature by CETSA-based Western blot analysis.
Assay [14] deals with T47D. Description: Antiproliferative activity against human T47D cells at 5 uM incubated for 6 days by MTT assay relative to control. The format is functional.
The test system of assay [15] is MCF7. Description: Antiproliferative activity against human MCF7 cells at 10 uM incubated for 6 days by MTT assay relative to control. The format is functional.
Assay [16] deals with T3, Serine/threonine-protein kinase LMTK3 (Homo sapiens). Description: Binding affinity to full length LMTK3 (unknown origin) assessed as change in melting temperature at 10 uM by CETSA-based Western blot analysis.
Assay [17] relates to T47D. Kind of assay: Antiproliferative activity against human T47D cells at 10 uM incubated for 6 days by MTT assay relative to control. The format is functional.

Activity calls are given as the source filed them. The rule behind the calls is not given here.

As to `CC(C)C[C@H]1CNC(=N)N1C[C@H](Cc1ccccc1)NS(=O)(=O)c1ccccc1`, the Activity with MCF7 [1] and in the assay on T47D [6] was 100% throughout. Also, the inhibition came to 27.3% in assay [2], 2% in [3], 2.3% in assay [5] and 8.3% in [7]. This molecule registered an IC50 in [4] of 654 nM.

On to `Cc1ccc(S(=O)(=O)N[C@@H](Cc2ccc(O)cc2)CN2C(=N)NC[C@@H]2CC(C)C)cc1`, for which the inhibition in assay [2] came out at 22.2%; in assay [3] it was 0.8%; in [5] it was 3.9%; in assay [7], 7.8%. In addition, it took 308 nM to reach half-maximal inhibition in assay [4] (IC50).

In the case of `C[C@@]1(C(=O)Nc2ccc(F)nc2)CCCN1c1nc(Nc2cc(C3CC3)n[nH]2)c2cccn2n1` [BMS-754807], the inhibition is greater than 95% in assay [8] and 75.1% in assay [9]. This molecule also returned an IC50 in assay [4] of 3160 nM.

In the case of `CN1CCN(c2ccc(C(=O)Nc3n[nH]c4ccc(Cc5cc(F)cc(F)c5)cc34)c(NC3CCOCC3)c2)CC1` [ENTRECTINIB], the inhibition in assay [8] is greater than 95%; in assay [9] it was 54.1%. The molecule also gave a 50% inhibitory concentration (IC50) in assay [4] of 4650 nM.

With `N=C1NC[C@H](CC2CCCCC2)N1C[C@H](Cc1ccccc1)NS(=O)(=O)c1ccccc1`, the result in assay [10], in [12], in [13] and in assay [16] was Active. The Activity in the assay with MCF7 [11] stood at 60%; in the assay with T47D [14], 60%; with MCF7 [15] it was 100%; with T47D [17], 100%. The inhibition in assay [2] stood at 103%; in assay [3] it was 10.6%; in assay [5] it was 18.4%; in [7] it was 11.4%. In assay [4], this molecule returned a half-inhibitory concentration (IC50) of 1610 nM.

As to `N=C1NC[C@H](CC2CCCCC2)N1C[C@H](Cc1ccc(O)cc1)NS(=O)(=O)c1ccccc1Cl`, the inhibition in assay [2] was 56.8%; in assay [3] it was 16%; in [5], 0.1%; in [7] it was 16.1%. Further, in assay [13], the result was inactive. In addition, in [4], the IC50 is 226 nM.

Turning to `CC(C)C[C@H]1CNC(=N)N1C[C@H](Cc1ccc(O)cc1)NS(=O)(=O)c1ccccc1Cl`, the inhibition in assay [2] was 19.8%; in assay [3], 0.1%; in assay [5] it was 7.3%; in assay [7], 15.9%. For the same molecule, the 50% inhibitory concentration (IC50) in assay [4] turned out to be 210 nM.

Turning to `Cc1ccc(S(=O)(=O)N[C@@H](Cc2ccc(O)cc2)CN2C(=N)NC[C@@H]2CC2CCCCC2)cc1`, the Activity with MCF7 [1] and in the assay with T47D [6] was 50% throughout. The inhibition in [2] came out at 79.8%; in [3] it was 25.3%; in assay [5], 5.7%; in assay [7], 16.1%. In assay [4], the IC50 worked out at 318 nM.
